Results on 5 molecules are retold here after article PMC10175918 (Communications Biology, 2023).

Each structure is given as a SMILES string. Like-named read-outs stand apart in the source and are kept apart here.

Holding throughout (experiment): TGFα-shedding assay-based GPCR screening with chimeric Gα subunit proteins
What all share (format): cell-based

Test [1] addresses T1, 348 GPCRs (Homo sapiens, UniProt Q8IZ08).
T1 construct: expressed in transfected cells; host or cells: HEK293A
Conditions: 10µM, Favipiravir 100μM.

Test [2] addresses T2, 348 GPCRs (Homo sapiens, UniProt Q96AM1).
T2 construct: expressed in transfected cells; host or cells: HEK293A
Conditions: 10µM, Favipiravir 100μM.

Test [3] deals with T3, 348 GPCRs (Homo sapiens, UniProt Q86SP6).
T3 construct: expressed in transfected cells; host or cells: HEK293A
T3 sequence (Q86SP6 1-731): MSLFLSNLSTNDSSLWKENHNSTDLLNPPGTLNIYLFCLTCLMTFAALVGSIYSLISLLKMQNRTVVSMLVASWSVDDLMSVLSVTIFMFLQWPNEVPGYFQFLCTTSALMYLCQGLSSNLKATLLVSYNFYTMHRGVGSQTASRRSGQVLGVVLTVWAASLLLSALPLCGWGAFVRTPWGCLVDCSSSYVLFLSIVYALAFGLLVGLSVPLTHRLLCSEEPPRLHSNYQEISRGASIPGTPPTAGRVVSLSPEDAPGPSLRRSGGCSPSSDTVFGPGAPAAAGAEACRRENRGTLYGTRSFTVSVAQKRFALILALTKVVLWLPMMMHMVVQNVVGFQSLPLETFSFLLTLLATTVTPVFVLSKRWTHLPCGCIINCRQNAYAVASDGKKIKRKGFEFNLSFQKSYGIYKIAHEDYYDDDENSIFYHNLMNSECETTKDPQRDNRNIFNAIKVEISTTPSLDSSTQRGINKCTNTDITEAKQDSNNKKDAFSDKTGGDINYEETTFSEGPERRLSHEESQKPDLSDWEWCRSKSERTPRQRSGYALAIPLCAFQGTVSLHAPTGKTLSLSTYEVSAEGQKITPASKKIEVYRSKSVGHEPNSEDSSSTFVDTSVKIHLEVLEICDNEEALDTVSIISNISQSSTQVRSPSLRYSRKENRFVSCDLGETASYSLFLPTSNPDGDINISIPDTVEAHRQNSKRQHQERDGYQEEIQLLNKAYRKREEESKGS
Conditions: 10µM, Favipiravir 100μM.

The target in test [4] is T4, 348 GPCRs (Homo sapiens, UniProt Q9HBX9).
T4 construct: expressed in transfected cells; host or cells: HEK293A
T4 sequence (Q9HBX9 1-757): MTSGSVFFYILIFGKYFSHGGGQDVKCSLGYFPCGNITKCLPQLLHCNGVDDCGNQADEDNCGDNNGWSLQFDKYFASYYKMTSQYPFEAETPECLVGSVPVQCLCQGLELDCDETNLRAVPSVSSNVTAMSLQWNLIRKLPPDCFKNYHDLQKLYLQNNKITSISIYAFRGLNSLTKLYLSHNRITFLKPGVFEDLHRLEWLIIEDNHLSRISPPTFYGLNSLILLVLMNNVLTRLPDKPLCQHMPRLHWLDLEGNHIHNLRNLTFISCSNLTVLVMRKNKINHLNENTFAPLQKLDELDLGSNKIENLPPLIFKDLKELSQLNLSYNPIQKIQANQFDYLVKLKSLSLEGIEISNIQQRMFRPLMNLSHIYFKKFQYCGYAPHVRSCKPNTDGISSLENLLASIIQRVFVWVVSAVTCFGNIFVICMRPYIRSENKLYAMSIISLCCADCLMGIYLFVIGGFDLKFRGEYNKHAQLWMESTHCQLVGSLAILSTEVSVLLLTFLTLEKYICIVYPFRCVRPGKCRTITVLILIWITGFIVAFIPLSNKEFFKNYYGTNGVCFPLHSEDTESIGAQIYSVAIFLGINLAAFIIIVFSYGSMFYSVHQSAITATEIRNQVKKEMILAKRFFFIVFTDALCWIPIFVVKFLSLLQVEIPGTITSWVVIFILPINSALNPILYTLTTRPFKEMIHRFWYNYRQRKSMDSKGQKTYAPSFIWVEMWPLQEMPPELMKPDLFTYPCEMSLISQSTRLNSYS
Conditions: RXFP1 (relaxin/insulin-like family peptide receptor 1); 10µM, Favipiravir 100μM.

Test [5] has as its target T5, 348 GPCRs (Homo sapiens, UniProt P25089).
T5 construct: expressed in transfected cells; host or cells: HEK293A
T5 sequence (P25089 1-353): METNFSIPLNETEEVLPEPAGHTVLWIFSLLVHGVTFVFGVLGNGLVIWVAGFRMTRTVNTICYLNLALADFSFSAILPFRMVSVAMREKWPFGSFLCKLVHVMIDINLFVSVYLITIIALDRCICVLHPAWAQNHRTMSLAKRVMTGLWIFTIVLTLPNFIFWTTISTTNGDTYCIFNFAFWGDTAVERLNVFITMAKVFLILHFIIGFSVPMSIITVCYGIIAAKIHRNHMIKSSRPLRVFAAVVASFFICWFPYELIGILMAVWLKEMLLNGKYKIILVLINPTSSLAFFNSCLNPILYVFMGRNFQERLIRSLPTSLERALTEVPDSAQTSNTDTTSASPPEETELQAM
Conditions: 10µM, Favipiravir 100μM.

The target of test [6] is T6, 348 GPCRs (Homo sapiens, UniProt P46663).
T6 construct: expressed in transfected cells; host or cells: HEK293A
T6 sequence (P46663 1-353): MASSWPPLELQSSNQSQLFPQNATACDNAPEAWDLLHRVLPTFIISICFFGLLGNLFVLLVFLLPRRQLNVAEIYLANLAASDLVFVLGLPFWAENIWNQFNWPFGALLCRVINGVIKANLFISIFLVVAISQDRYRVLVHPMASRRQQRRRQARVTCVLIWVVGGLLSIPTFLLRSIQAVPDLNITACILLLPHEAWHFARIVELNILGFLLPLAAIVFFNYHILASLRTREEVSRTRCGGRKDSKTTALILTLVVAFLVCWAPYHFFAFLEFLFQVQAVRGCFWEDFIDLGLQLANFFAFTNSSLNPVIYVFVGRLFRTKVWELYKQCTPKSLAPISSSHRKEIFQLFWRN
Conditions: 10µM, Favipiravir 100μM.

Where [7] appears, read: GPR135 (G Protein-Coupled Receptor 135), read-out: % GPCR activation compared to TPA.
[8] abbreviates: MRGF (MAS-related GPR, member F), read-out: % GPCR activation compared to TPA.
Setting [9] is: MRGPRF (MAS-related GPR, member F), read-out: % GPCR activation compared to TPA.
Where [10] appears, read: GPR149 (G protein-coupled receptor 149), read-out: % GPCR activation compared to TPA.
[11] abbreviates: FPR3 (formyl peptide receptor 3), read-out: % GPCR activation compared to TPA.
Setting [12] is: B1 (bradykinin receptor B1), read-out: % GPCR activation compared to TPA.
[13] abbreviates: read-out: % GPCR activation compared to TPA, GPR135 (G Protein-Coupled Receptor 135).
Setting [14] is: read-out: % GPCR activation compared to TPA, MRGF (MAS-related GPR, member F).
The mark [15] stands for this setting: read-out: % GPCR activation compared to TPA, MRGPRF (MAS-related GPR, member F).
[16] abbreviates: read-out: % GPCR activation compared to TPA, GPR149 (G protein-coupled receptor 149).
The mark [17] stands for this setting: read-out: % GPCR activation compared to TPA, FPR3 (formyl peptide receptor 3).
Setting [18] is: read-out: % GPCR activation compared to TPA, B1 (bradykinin receptor B1).

T1 sequence (Q8IZ08 whole entry): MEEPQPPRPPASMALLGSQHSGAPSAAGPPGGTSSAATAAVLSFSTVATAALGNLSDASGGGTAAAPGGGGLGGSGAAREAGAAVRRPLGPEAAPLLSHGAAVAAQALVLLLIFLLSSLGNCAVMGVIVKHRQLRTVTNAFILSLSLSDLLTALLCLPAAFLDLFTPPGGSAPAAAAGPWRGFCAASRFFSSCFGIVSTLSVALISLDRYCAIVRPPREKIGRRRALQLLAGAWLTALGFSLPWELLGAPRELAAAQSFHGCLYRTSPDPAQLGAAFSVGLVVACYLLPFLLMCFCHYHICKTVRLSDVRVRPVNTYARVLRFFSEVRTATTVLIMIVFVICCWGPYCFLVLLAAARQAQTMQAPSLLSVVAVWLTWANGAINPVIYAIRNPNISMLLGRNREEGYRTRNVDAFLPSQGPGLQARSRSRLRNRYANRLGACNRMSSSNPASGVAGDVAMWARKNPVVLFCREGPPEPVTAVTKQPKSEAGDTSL
T2 sequence (Q96AM1 whole entry): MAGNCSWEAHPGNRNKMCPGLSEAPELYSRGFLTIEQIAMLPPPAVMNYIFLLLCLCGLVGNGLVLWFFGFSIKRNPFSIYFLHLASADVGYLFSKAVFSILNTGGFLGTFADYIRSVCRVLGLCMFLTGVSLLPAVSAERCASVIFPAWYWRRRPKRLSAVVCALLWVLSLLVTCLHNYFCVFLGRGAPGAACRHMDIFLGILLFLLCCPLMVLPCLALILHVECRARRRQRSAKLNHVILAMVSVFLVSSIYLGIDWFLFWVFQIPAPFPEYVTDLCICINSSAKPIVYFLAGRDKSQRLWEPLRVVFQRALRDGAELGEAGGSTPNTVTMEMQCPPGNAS

With `CC(C)C(=O)OC[C@H]1O[C@@H](n2ccc(NO)nc2=O)[C@H](O)[C@@H]1O` [molnupiravir], the activation at 100 µM is -1.53% at 348 GPCRs [1] (setting [7]); -3.54% on 348 GPCRs [2] (setting [8]); -0.471% at 348 GPCRs [2] (setting [9]); -41.7% at 348 GPCRs [3] (setting [10]); -1.95% on 348 GPCRs [5] (setting [11]). Besides, the “% GPCR activation compared to TPA” value on 348 GPCRs [4] was -0.9572%. Further, on 348 GPCRs [6] (setting [12]), the activation at 10 µM is -3.36%.

Turning to `CC(C)OC(=O)[C@H](C)N[P@](=O)(OC[C@H]1O[C@@H](n2ccc(=O)[nH]c2=O)[C@](C)(F)[C@@H]1O)Oc1ccccc1` [sofosbuvir], the activation at 100 µM on 348 GPCRs [1] (setting [13]) is -2.6%; on 348 GPCRs [2] (setting [14]), -2.71%; on 348 GPCRs [2] (setting [15]), -0.0367%; on 348 GPCRs [3] (setting [16]) it was -7.06%; at 348 GPCRs [5] (setting [17]), -0.773%. In addition, at 348 GPCRs [4], the “% GPCR activation compared to TPA” value is listed as 0.4557%. Moreover, the activation at 10 µM on 348 GPCRs [6] (setting [18]) was -5%.

Turning to `N#C[C@@]1(c2ccc3c(N)ncnn23)O[C@H](CO)[C@@H](O)[C@H]1O` [GS441524], the activation at 100 µM on 348 GPCRs [1] (setting [7]) is -1.68%; on 348 GPCRs [2] (setting [8]), 4.76%; at 348 GPCRs [2] (setting [9]) it was -0.751%; at 348 GPCRs [3] (setting [10]) it was -0.814%; on 348 GPCRs [5] (setting [11]), 2.5%. Moreover, the “% GPCR activation compared to TPA” value at 348 GPCRs [4] is given as -1.093%. Besides, on 348 GPCRs [6] (setting [12]), the activation at 10 µM was determined as 1.31%.

Consider `NC(=O)c1nc(F)cnc1O` [favipiravir, 6-fluoro-3-hydroxy-2-pyrazinecarboxamide], for which the activation at 100 µM is -0.994% on 348 GPCRs [1] (setting [7]); 0.745% at 348 GPCRs [2] (setting [8]); -1.13% on 348 GPCRs [2] (setting [9]); 0.0439% on 348 GPCRs [3] (setting [10]); 0.4% at 348 GPCRs [5] (setting [11]). Further, at 348 GPCRs [4], the “% GPCR activation compared to TPA” value is reported as 0.2738%. For the same molecule, at 348 GPCRs [6] (setting [12]), the activation at 10 µM came to 5.17%.

As to `CCC(CC)COC(=O)[C@H](C)N[P@](=O)(OC[C@H]1O[C@@](C#N)(c2ccc3c(N)ncnn23)[C@H](O)[C@@H]1O)Oc1ccccc1` [remdesivir], the activation at 100 µM on 348 GPCRs [1] (setting [13]) was -2.35%; at 348 GPCRs [2] (setting [14]), 0.574%; on 348 GPCRs [2] (setting [15]) it was -0.326%; on 348 GPCRs [3] (setting [16]) it was -0.636%; on 348 GPCRs [5] (setting [17]), 3.79%. In addition, at 348 GPCRs [4], the “% GPCR activation compared to TPA” value was -0.5639%. Also, at 348 GPCRs [6] (setting [18]), the activation at 10 µM amounted to 8.43%.
